From EP0023575A1, “Benzene sulfonyl semicarbazides, their preparation and use, pharmaceutical formulations containing them and their preparation” (HOECHST AKTIENGESELLSCHAFT, priority 1979, dated 1981)

Test system: normal ernährte Kaninchen
Experiment: Blood sugar lowering in normally fed rabbits after oral administration (autoanalyzer)
Type: in vivo
Procedure: Die blutzuckersenkende Wirkung der beschriebenen Benzolsulfonylsemicarbazide kann dadurch festgestellt werden, daß man sie als freie Verbindung oder in Form der Natriumsalze an normal ernährte Kaninchen verfüttert und den Blutzuckerwert nach der bekannten Methode von Hagedorn-Jensen oder mit einem Autoanalyzer über eine längere Zeitdauer ermittelt.
Die routinemäßige Bestimmung der blutzuckersenkenden Wirkung kann mit Dosierungen von z.B. 10,2 oder 0,4 mg Wirksubstanz pro kg Versuchstier nach bekannten Methoden erfolgen.
4-(4-<2-(1-Oxo-isoindolin-2-carboxamido)-äthyl> -benzolsulfonyl)-1,1-hexamethylen-semicarbazid wurde in einer Dosierung von 0,4 mg/kg Kaninchen verabreicht und die Blutzuckerwerte wurden mit einem Autoanalyzer über eine längere Zeitdauer ermittelt. Die hierbei gemessene Blutzuckersenkung ist in der nachfolgenden Tabelle in % nach.... Stunden angegeben. In der Tabelle ist ferner die Blutzuckersenkung in % angegeben, die nach p.o. Verabreichung von 0,08 mg/kg Kaninchen beobachtet wurde.

O=C(NN1CCCCCC1)NS(=O)(=O)c1ccc(CCNC(=O)N2Cc3ccccc3C2=O)cc1 [4-(4-<2-(1-Oxo-isoindolin-2-carboxamido)-äthyl> -benzolsulfonyl)-1,1-hexamethylen-semicarbazid]
Blutzuckersenkung an Kaninchen in % (0,4 mg/kg p.o., after 1 hour): 26% | Blutzuckersenkung an Kaninchen in % (0,4 mg/kg p.o., after 3 hours): 31% | Blutzuckersenkung an Kaninchen in % (0,4 mg/kg p.o., after 5 hours): 43% | Blutzuckersenkung an Kaninchen in % (0,4 mg/kg p.o., after 24 hours): 37% | Blutzuckersenkung an Kaninchen in % (0,4 mg/kg p.o., after 48 hours): 0% | Blutzuckersenkung an Kaninchen in % (0,08 mg/kg p.o., after 1 hour): 11% | Blutzuckersenkung an Kaninchen in % (0,08 mg/kg p.o., after 3 hours): 22% | Blutzuckersenkung an Kaninchen in % (0,08 mg/kg p.o., after 5 hours): 33%
